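Values below derive from 48-hour exposures of cells grown in 96-well plates, with endpoints linearly interpolated between the two concentrations bracketing the appropriate inhibition level. Here, GI50 denotes the concentration required for 50% inhibition of growth.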 The source made the active and inactive calls. Rule as the data show it: active = GI50 up to about 1.1 µM and inactive = higher.
What was measured:
Assay in all cases: DTP human tumour cell line panel, 48 h
MOLT-4 = test system: MOLT-4
A549 = test system: A549
MDA-MB-435 = test system: MDA-MB-435
HT-29 = test system: HT-29
SNB-75 = test system: SNB-75
A498 = test system: A498
HCT-116 = test system: HCT-116
U-251 = test system: U-251
PC-3 = test system: PC-3
MCF7 = test system: MCF7
Hs-578T = test system: Hs-578T
OVCAR-5 = test system: OVCAR-5
IGROV-1 = test system: IGROV-1
K562 = test system: K562
OVCAR-8 = test system: OVCAR-8
SK-MEL-2 = test system: SK-MEL-2
LOX IMVI = test system: LOX IMVI
SF-268 = test system: SF-268
SR = test system: SR
OVCAR-3 = test system: OVCAR-3
OVCAR-4 = test system: OVCAR-4
Malme-3M = test system: Malme-3M
M14 = test system: M14
UACC-62 = test system: UACC-62
RPMI-8226 = test system: RPMI-8226
T47D = test system: T47D
786-0 = test system: 786-0
UACC-257 = test system: UACC-257
SNB-19 = test system: SNB-19
RXF 393 = test system: RXF 393
HCT-15 = test system: HCT-15
CCRF-CEM = test system: CCRF-CEM
NCI-H226 = test system: NCI-H226
MDA-MB-231 = test system: MDA-MB-231
SK-MEL-5 = test system: SK-MEL-5
HL-60 = test system: HL-60
COLO 205 = test system: COLO 205
CAKI-1 = test system: CAKI-1
SN12C = test system: SN12C
SF-295 = test system: SF-295
DU-145 = test system: DU-145
HOP-62 = test system: HOP-62
SK-OV-3 = test system: SK-OV-3
UO-31 = test system: UO-31
SK-MEL-28 = test system: SK-MEL-28
ACHN = test system: ACHN
BT-549 = test system: BT-549
HOP-92 = test system: HOP-92
NCI/ADR-RES = test system: NCI/ADR-RES
SW-620 = test system: SW-620
KM12 = test system: KM12
HCC 2998 = test system: HCC 2998
EKVX = test system: EKVX
MDA-N = test system: MDA-N
NCI-H23 = test system: NCI-H23
NCI-H460 = test system: NCI-H460
NCI-H522 = test system: NCI-H522

CC1OC(OC2C(OC(=O)[C@]34CCC(C)(C)C[C@H]3C3=CC[C@@H]5[C@@]6(C)CC[C@H](OC7OC(C(=O)O)C(O)C(O)C7O)C(C)(C)[C@@H]6CC[C@@]5(C)[C@]3(C)C[C@H]4O)OCC(O)C2O)C(O)C(OC2OCC(O)(CO)C2O)C1OC1OCC(O)C(O)C1O (some centres not stated)
GI50 (MOLT-4): 13.6 µM (inactive)
GI50 (A549): 3.9 µM (inactive)
GI50 (MDA-MB-435): 6.59 µM (inactive)
GI50 (HT-29): 3.53 µM (inactive)
GI50 (SNB-75): 17.7 µM (inactive)
GI50 (A498): 1.83 µM (inactive)
GI50 (HCT-116): 7.19 µM (inactive)
GI50 (U-251): 9.64 µM (inactive)
GI50 (PC-3): 8.55 µM (inactive)
GI50 (MCF7): 6.17 µM (inactive)
GI50 (Hs-578T): 20.3 µM (inactive)
GI50 (OVCAR-5): 10.8 µM (inactive)
GI50 (IGROV-1): 16 µM (inactive)
GI50 (K562): 10.3 µM (inactive)
GI50 (OVCAR-8): 17.1 µM (inactive)
GI50 (SK-MEL-2): 6.7 µM (inactive)
GI50 (LOX IMVI): 13.7 µM (inactive)
GI50 (SF-268): 17.9 µM (inactive)
GI50 (SR): 3.94 µM (inactive)
GI50 (OVCAR-3): 14 µM (inactive)
GI50 (OVCAR-4): 10.5 µM (inactive)
GI50 (Malme-3M): 11.6 µM (inactive)
GI50 (M14): 10.8 µM (inactive)
GI50 (UACC-62): 16 µM (inactive)
GI50 (RPMI-8226): 7.23 µM (inactive)
GI50 (T47D): 8.47 µM (inactive)
GI50 (786-0): 12.1 µM (inactive)
GI50 (UACC-257): 11.1 µM (inactive)
GI50 (SNB-19): 11 µM (inactive)
GI50 (RXF 393): 15.2 µM (inactive)
GI50 (HCT-15): 16.4 µM
GI50 (CCRF-CEM): 17 µM (inactive)
GI50 (NCI-H226): 10.9 µM (inactive)
GI50 (MDA-MB-231): 3.43 µM (inactive)
GI50 (SK-MEL-5): 14.8 µM (inactive)
GI50 (HL-60): 3.19 µM (inactive)
GI50 (COLO 205): 1.81 µM (inactive)
GI50 (CAKI-1): 6.62 µM (inactive)
GI50 (SN12C): 3.37 µM (inactive)
GI50 (SF-295): 11.9 µM (inactive)
GI50 (DU-145): 12.9 µM (inactive)
GI50 (HOP-62): 16.1 µM (inactive)
GI50 (SK-OV-3): 15.6 µM (inactive)
GI50 (UO-31): 2.92 µM (inactive)
GI50 (SK-MEL-28): 4.49 µM (inactive)
GI50 (ACHN): 5.15 µM (inactive)
GI50 (BT-549): 5.42 µM (inactive)
GI50 (HOP-92): 12.1 µM (inactive)
GI50 (NCI/ADR-RES): 13.3 µM (inactive)
GI50 (SW-620): 10.9 µM (inactive)
GI50 (KM12): 4.36 µM (inactive)
GI50 (HCC 2998): 1.81 µM (inactive)
GI50 (EKVX): 4.3 µM (inactive)
GI50 (MDA-N): 4.31 µM (inactive)
GI50 (NCI-H23): 2.59 µM (inactive)
GI50 (NCI-H460): 18.2 µM (inactive)
GI50 (NCI-H522): 4.08 µM (inactive)
